In ChEMBL document CHEMBL5126523, “Recent advances in DDR (DNA damage response) inhibitors for cancer therapy” (Eur J Med Chem, 2022):
pEC50, pIC50, pKi: −log10 of the molar value.

What was measured:
[1] = target: T1, Serine/threonine-protein kinase ATR (Homo sapiens, UniProt Q13535); experiment: Inhibition of ATR (unknown origin)-driven CHK1 phosphorylation
[2] = target: T1, Serine/threonine-protein kinase ATR; experiment: Binding affinity to ATR (unknown origin) assessed as inhibition constant
[3] = AUC (0 to last) in Sprague-Dawley rat at 10 mg/kg, iv by LC-MS/MS analysis; type: ADME, organism-based; set-up: time 0 - last, dose 10 mg/kg, route iv; conditions: in vivo
[4] = test system: HT-29; experiment: Antitumor activity against human HT-29 cells xenografted in BALB/c mouse assessed as tumor growth inhibition relative to control; type: functional
[5] = target: Serine/threonine-protein kinase Chk1 (Homo sapiens, UniProt O14757); experiment: Inhibition of N-terminal GST-tagged full-length recombinant human CHK1 expressed in baculovirus infected Sf9 insect cells using FAM-P10 peptide as substrate preincubated for 10 mins followed by substrate addition measured after 60 mins by ADP-Glo assay
Serine/threonine-protein kinase Chk1, sequence (O14757 whole entry): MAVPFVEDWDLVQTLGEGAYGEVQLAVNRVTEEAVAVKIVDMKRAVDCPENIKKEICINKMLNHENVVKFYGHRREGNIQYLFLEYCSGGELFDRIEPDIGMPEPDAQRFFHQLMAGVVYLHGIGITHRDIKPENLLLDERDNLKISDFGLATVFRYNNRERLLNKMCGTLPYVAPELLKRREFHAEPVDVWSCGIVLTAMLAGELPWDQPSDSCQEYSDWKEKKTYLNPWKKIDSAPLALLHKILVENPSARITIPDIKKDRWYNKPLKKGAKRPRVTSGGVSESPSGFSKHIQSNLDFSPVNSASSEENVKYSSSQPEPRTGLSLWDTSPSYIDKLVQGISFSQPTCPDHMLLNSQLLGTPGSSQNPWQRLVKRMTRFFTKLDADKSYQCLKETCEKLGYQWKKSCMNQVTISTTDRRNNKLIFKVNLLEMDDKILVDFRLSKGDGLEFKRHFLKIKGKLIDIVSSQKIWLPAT

[6] = AUC (0 to last) in overnight fasted rat at 5 mg/kg, po via gavage measured for 0.25 to 24 hrs by LC/MS/MS analysis; type: ADME, organism-based; set-up: time upper 24 hrs, dose 5 mg/kg, time lower 0.25 hrs, route po; conditions: in vivo
[7] = Cmax in overnight fasted rat at 5 mg/kg, po via gavage measured for 0.25 to 24 hrs by LC/MS/MS analysis; type: ADME, organism-based; set-up: dose 5 mg/kg, time upper 24 hrs, time lower 0.25 hrs, route po; conditions: in vivo
[8] = AUC (0 to last) in BALB/c mouse at 2 mg/kg, po by LC-MS/MS analysis; type: ADME, organism-based; set-up: time 0 - last, dose 2 mg/kg, route po; conditions: in vivo
[9] = Half life in BALB/c mouse at 0.4 mg/kg, iv by LC-MS/MS analysis; type: ADME, organism-based; conditions: in vivo
[10] = Tmax in BALB/c mouse at 2 mg/kg, po by LC-MS/MS analysis; type: ADME, organism-based; conditions: in vivo
[11] = Cmax in BALB/c mouse at 2 mg/kg, po by LC-MS/MS analysis; type: ADME, organism-based; set-up: dose 2 mg/kg, route po; conditions: in vivo
[12] = Oral bioavailability in BALB/c mouse at 2 mg/kg by LC-MS/MS analysis; type: ADME, organism-based; conditions: in vivo
[13] = test system: NCI-H1703; experiment: Antitumor activity against human NCI-H1703 cells xenografted in BALB/c mouse assessed as tumor growth inhibition at 90 mg/kg, bid measured on day 21 by vernier caliper method relative to control; type: functional; conditions: NCI-H1703, 504 h, read-out: TGI
[14] = AUC (0 to last) in BALB/c mouse at 0.4 mg/kg, iv by LC-MS/MS analysis; type: ADME, organism-based; set-up: time 0 - last, dose 0.4 mg/kg, route iv; conditions: in vivo
[15] = Half life in BALB/c mouse at 2 mg/kg, po by LC-MS/MS analysis; type: ADME, organism-based; conditions: in vivo
[16] = target: T2, Wee1-like protein kinase (Homo sapiens, UniProt P30291); experiment: Displacement of tracer 178 from N-terminal GST-fused human WEE1 (215 to 646 residues) expressed in baculovirus expression system preincubated for 5 mins followed by tracer addition measured after 60 mins by Lantha Screen EU assay
T2 sequence (P30291 whole entry, the tested form may be a part): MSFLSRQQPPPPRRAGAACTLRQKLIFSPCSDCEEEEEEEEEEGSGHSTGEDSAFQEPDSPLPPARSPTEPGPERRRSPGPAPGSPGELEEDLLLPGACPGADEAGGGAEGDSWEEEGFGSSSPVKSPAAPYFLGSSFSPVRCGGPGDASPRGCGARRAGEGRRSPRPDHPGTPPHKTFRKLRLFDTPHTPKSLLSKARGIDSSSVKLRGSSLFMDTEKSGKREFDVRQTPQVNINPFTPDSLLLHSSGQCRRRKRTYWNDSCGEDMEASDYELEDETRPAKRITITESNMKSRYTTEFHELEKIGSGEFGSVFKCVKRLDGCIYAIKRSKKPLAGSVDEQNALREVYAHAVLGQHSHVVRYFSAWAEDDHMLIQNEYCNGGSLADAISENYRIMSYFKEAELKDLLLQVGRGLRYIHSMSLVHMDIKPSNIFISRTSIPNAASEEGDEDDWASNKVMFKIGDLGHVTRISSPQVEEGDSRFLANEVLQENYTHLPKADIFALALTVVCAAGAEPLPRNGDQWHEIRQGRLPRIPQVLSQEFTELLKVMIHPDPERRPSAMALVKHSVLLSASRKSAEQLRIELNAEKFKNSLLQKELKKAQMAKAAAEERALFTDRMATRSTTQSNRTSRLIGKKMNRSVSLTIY

[17] = Half life in Sprague-Dawley rat at 10 mg/kg, iv by LC-MS/MS analysis; type: ADME, organism-based; conditions: in vivo
[18] = Half life in mouse at 0.4 mg/kg, iv; type: ADME, organism-based; conditions: in vivo
[19] = AUC (0 to last) in mouse at 0.4 mg/kg, iv; type: ADME, organism-based; set-up: time 0 - last, dose 0.4 mg/kg, route iv; conditions: in vivo
[20] = target: DNA-dependent protein kinase catalytic subunit (Homo sapiens, UniProt P78527); experiment: Inhibition of DNA-PK (unknown origin)
[21] = target: T2, Wee1-like protein kinase; experiment: Inhibition of WEE1 (unknown origin) using LSNLYHQGKFLQTFCGSPLYRRR polypeptide as substrate incubated for 40 mins in presence of [gamma-33P]-ATP by scintillation counting method
[22] = test system: LoVo; experiment: Antitumor activity against human LoVo cells xenografted in BALB/c nude mouse assessed as tumor growth inhibition at 40 mg/kg,iv bid by vernier caliper method relative to control; type: functional; conditions: read-out: TGI
[23] = AUC (0 to last) in BALB/c nude mouse at 1 mg/kg, iv measured for 0.08 to 24 hrs by LC-MS/MS analysis; type: ADME, organism-based; set-up: time 0.08-24 hrs, dose 1 mg/kg, route iv; conditions: in vivo
[24] = Half life in BALB/c nude mouse at 1 mg/kg, iv measured for 0.08 to 24 hrs by LC-MS/MS analysis; type: ADME, organism-based; conditions: in vivo, time 0.08-24 hrs
[25] = Oral bioavailability in BALB/c nude mouse at 1 mg/kg, iv measured for 0.08 to 24 hrs by LC-MS/MS analysis; type: ADME, organism-based; conditions: in vivo, time 0.08-24 hrs
[26] = target: T3, Protein cereblon/Wee1-like protein kinase (Homo sapiens, UniProt P30291+Q96SW2); experiment: PROTAC activity at CRBN/recombinant WEE1 (unknown origin) assessed as induction of WEE1 degradation by FRET based Lantha Screen assay; type: protein assay
T3 sequence (P30291 whole entry): as the sequence (P30291 whole entry, the tested form may be a part) above
T3 sequence (Q96SW2 whole entry): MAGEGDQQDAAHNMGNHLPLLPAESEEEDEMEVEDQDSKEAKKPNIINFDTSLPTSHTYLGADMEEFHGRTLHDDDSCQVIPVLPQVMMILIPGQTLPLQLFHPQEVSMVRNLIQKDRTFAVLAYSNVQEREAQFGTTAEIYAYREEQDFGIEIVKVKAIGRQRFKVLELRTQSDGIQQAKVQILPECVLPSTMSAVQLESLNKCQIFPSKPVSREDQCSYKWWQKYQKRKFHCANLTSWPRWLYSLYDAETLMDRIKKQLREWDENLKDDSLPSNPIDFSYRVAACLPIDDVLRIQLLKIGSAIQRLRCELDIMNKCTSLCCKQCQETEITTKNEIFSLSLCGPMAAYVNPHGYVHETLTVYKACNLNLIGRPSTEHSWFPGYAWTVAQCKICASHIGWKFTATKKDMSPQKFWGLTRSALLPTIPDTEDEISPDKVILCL

[27] = target: T3, Protein cereblon/Wee1-like protein kinase; experiment: PROTAC activity at CRBN/WEE1 in human […] assessed as induction of WEE1 degradation treated for 5 hrs by Western blot analysis; type: cell-based
[28] = Half life in overnight fasted Sprague-Dawley rat at 2 mg/kg, po via gavage measured for 0.25 to 24 hrs by LC/MS/MS analysis; type: ADME, organism-based; conditions: in vivo, time 0.25-24 hrs
[29] = test system: LoVo; experiment: Inhibition of cell growth in human LoVo cells assessed as measuring ATP content incubated for 3 days by Cell Titer Glo assay; type: functional, cell-based; conditions: 72 h
[30] = target: ATR/ATRIP (Homo sapiens, UniProt Q13535); experiment: Inhibition of human FLAG-tagged ATR/c-Myc-tagged ATRIP expressed in mammalian expression system using p53 as substrate incubated for 2 hrs by fluorescence based assay
ATR/ATRIP, sequence (Q13535 whole entry): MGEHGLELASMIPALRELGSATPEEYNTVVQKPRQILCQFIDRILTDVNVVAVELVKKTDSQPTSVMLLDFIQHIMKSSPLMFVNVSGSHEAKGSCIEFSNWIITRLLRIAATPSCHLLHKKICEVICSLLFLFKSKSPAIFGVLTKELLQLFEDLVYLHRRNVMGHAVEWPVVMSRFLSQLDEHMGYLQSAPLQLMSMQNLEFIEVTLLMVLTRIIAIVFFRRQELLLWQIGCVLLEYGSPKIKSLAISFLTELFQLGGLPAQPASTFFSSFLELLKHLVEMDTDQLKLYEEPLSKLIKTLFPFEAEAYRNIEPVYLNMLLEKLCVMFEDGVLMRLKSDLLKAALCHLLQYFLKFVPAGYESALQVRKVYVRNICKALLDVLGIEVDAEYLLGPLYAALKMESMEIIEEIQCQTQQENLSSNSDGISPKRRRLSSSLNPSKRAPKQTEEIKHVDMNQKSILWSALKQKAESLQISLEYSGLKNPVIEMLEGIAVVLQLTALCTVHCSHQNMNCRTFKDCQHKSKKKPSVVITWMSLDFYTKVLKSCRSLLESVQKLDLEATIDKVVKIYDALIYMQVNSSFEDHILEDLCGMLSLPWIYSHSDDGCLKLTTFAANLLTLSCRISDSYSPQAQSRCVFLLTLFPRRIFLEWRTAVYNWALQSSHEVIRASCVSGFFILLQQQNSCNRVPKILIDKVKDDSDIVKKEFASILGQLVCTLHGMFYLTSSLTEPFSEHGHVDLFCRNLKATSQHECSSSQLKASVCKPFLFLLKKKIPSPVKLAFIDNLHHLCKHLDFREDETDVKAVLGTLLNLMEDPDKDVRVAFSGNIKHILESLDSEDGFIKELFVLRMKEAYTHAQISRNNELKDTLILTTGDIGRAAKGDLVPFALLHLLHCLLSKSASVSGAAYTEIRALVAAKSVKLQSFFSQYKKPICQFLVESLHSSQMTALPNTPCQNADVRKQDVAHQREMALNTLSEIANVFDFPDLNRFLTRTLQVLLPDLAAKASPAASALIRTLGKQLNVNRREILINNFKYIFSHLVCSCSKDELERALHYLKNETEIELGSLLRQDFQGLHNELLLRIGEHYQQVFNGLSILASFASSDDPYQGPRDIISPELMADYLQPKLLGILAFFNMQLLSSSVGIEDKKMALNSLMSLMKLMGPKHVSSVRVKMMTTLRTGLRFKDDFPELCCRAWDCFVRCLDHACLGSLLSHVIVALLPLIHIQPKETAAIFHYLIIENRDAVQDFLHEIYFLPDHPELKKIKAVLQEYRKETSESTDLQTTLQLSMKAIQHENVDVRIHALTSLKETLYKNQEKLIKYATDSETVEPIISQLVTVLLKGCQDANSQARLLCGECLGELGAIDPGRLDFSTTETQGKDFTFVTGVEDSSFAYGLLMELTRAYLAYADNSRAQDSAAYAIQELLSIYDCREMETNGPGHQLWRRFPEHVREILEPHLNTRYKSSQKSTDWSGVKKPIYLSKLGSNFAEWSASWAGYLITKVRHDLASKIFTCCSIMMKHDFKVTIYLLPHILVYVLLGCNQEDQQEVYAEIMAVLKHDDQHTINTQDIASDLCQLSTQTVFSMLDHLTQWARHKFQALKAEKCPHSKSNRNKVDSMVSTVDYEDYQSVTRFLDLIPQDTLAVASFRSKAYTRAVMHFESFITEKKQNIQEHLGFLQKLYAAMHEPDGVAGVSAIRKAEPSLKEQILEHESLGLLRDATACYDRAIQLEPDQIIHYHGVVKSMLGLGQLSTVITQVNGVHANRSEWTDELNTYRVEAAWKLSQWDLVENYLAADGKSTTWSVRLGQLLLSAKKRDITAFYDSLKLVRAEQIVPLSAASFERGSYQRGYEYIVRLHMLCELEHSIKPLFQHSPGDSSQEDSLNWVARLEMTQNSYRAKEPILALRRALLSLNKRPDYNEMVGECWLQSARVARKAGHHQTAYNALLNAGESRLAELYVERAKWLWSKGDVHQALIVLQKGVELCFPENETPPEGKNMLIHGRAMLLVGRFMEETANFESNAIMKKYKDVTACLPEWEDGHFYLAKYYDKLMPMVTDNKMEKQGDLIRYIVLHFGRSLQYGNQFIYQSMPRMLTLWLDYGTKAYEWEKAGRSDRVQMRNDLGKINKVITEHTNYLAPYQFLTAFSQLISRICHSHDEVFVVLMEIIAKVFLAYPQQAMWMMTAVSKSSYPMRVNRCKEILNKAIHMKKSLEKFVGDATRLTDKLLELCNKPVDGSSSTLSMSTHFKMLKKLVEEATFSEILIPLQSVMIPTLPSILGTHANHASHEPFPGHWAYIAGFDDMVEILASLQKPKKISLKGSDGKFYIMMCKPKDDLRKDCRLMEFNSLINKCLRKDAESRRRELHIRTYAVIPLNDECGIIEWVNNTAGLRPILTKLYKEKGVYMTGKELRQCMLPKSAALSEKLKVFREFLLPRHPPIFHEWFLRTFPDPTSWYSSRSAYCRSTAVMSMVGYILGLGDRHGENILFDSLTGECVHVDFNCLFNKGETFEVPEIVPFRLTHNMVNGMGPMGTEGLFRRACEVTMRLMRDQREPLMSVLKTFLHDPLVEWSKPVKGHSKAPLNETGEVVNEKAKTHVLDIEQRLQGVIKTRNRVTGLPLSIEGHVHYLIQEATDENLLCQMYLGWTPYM
ATR/ATRIP, sequence (Q8WXE1 whole entry, further chain): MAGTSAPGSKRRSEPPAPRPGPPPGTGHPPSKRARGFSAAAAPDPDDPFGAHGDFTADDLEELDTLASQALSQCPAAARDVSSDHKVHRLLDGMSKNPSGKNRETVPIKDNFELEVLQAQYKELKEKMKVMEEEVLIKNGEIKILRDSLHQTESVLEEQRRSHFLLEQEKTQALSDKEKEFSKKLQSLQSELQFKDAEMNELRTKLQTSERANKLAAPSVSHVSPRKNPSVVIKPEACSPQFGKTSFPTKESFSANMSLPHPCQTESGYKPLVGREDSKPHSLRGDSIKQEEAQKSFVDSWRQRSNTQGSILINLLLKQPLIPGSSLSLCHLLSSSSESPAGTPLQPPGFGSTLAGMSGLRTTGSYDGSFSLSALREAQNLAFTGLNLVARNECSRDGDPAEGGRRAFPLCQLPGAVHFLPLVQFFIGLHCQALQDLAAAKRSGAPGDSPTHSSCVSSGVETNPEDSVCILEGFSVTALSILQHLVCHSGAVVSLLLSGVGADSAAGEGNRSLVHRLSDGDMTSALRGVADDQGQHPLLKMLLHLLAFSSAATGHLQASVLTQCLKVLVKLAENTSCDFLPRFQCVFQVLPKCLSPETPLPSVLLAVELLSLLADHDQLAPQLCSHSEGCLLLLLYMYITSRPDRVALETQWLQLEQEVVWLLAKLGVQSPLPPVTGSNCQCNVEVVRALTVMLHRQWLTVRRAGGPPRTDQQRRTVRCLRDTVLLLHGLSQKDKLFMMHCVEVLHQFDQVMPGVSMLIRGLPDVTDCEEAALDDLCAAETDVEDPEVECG

[31] = Cmax in overnight fasted Sprague-Dawley rat at 2 mg/kg, po via gavage measured for 0.25 to 24 hrs by LC/MS/MS analysis; type: ADME, organism-based; set-up: dose 2 mg/kg, time upper 24 hrs, time lower 0.25 hrs, route po; conditions: in vivo
[32] = AUC in overnight fasted Sprague-Dawley rat at 2 mg/kg, po via gavage measured for 0.25 to 24 hrs by LC/MS/MS analysis; type: ADME, organism-based; set-up: time 0.25-24 hrs, dose 2 mg/kg, route po; conditions: in vivo
[33] = Cmax in ICR mouse at 3 mg/kg, iv measured for 2 to 1440 mins; type: ADME, organism-based; set-up: time upper 1440 min, dose 3 mg/kg, time lower 2 min, route iv; conditions: in vivo
[34] = Half life in ICR mouse at 3 mg/kg, iv measured for 2 to 1440 mins; type: ADME, organism-based; conditions: in vivo, time 2-1440 min
[35] = Oral bioavailability in ICR mouse at 10 mg/kg measured for 5 to 1440 mins; type: ADME, organism-based; conditions: in vivo, time 5-1440 min
[36] = Half life in ICR mouse at 10 mg/kg, po measured for 5 to 1440 mins; type: ADME, organism-based; conditions: in vivo, time 5-1440 min
[37] = AUC (0 to last) in ICR mouse at 3 mg/kg, iv measured for 2 to 1440 mins; type: ADME, organism-based; set-up: time 2-1440 min, dose 3 mg/kg, route iv; conditions: in vivo
[38] = Cmax in ICR mouse at 10 mg/kg, po measured for 5 to 1440 mins; type: ADME, organism-based; set-up: time upper 1440 min, dose 10 mg/kg, time lower 5 min, route po; conditions: in vivo
[39] = Tmax in ICR mouse at 10 mg/kg, po measured for 5 to 1440 mins; type: ADME, organism-based; conditions: in vivo, time 5-1440 min
[40] = Tmax in ICR mouse at 3 mg/kg, iv measured for 2 to 1440 mins; type: ADME, organism-based; conditions: in vivo, time 2-1440 min
[41] = AUC (0 to last) in ICR mouse at 10 mg/kg, po measured for 5 to 1440 mins; type: ADME, organism-based; set-up: time 5-1440 min, dose 10 mg/kg, route po; conditions: in vivo
[42] = target: T2, Wee1-like protein kinase; experiment: Inhibition of N-terminal GST-tagged wild-type WEE1 (215 to 646 residues) (unknown origin) expressed in Sf21 insect cells incubated for 60 mins in presence of ATP by ELISA

T1 sequence (Q13535 whole entry): as the sequence (Q13535 whole entry) above

Nc1nn2cc(F)cnc2c1C(=O)Nc1cncc(F)c1N1CCC(C(=O)N2CCN(C3COC3)CC2)CC1 [M4344]
pIC50 [1]: 8.10
pKi [2]: > 9.82

COc1cc(F)cc(OCCCN)c1-c1cc(Nc2cnc(C#N)cn2)n[nH]1
AUC(0-t) [3]: 4640 ng·h/mL
TGI [4]: 51%
pIC50 [5]: > 9.00

CN1CCN(C2CCN(c3ccc(Nc4ncc5c(F)c(C6CC6)n(-c6cccc(C(C)(C)O)n6)c5n4)cc3F)CC2)CC1
AUC(0-t) [6]: 4580 ng·h/mL
Cmax [7]: 117 nM

Cc1cc2ncnn2cc1Nc1ncc2c(n1)n(N1CC3CCC(C1)O3)c(=O)n2C
AUC(0-t) [8]: 3.49 µM·h
half-life [9]: 76.8 min
Tmax [10]: 15 min
Cmax [11]: 2170 nM
bioavailability [12]: 44.5%
inhibition in vivo at 90 mg/kg [13]: 79.4%
AUC(0-t) [14]: 1.66 µM·h
half-life [15]: 231 min

CN1CCC2(CC1)CCN(c1ccc(Nc3ncc4cc(C5CC5)n(-c5cccc(C(C)(C)O)n5)c4n3)cc1)CC2
pIC50 [16]: 8.99
AUC(0-t) [6]: 4070 ng·h/mL
Cmax [7]: 163 nM

CCOC(=O)NCCCOc1cc(F)cc(OC)c1-c1cc(Nc2cnc(C#N)cn2)n[nH]1
half-life [17]: 318 min
AUC(0-t) [3]: 2990 ng·h/mL
pIC50 [5]: > 7.30

COc1ccc(C2(c3cc(-c4ncnc5cc(N6CCOCC6)ccc45)c(F)cc3Cl)CC2)nn1
half-life [18]: 35.4 min
AUC(0-t) [19]: 2260 ng·h/mL
pIC50 [20]: 7.54

CN1CCN(c2ccc(Nc3ncc4c(=O)n5n(c4n3)-c3cccc(n3)[C@@](C)(O)CCC/C=C\C5)cc2)CC1
pIC50 [21]: 7.54
inhibition in vivo at 40 mg/kg [22]: 84.7%
AUC(0-t) [23]: 6.04 µM·h
half-life [24]: 101 min
bioavailability [25]: 62.4%

C=CCn1c(=O)c2cnc(Nc3ccc(N4CCN(CCCNc5cccc6c5C(=O)N(C5CCC(=O)NC5=O)C6=O)CC4)cc3)nc2n1-c1cccc(C(C)(C)O)n1 (configuration not stated)
pIC50 [26]: 8.45
pEC50 [27]: 7.00

C[C@@H]1COCCN1c1nc(-c2ccnn2C)c2c(n1)c(-c1ccn[nH]1)nn2C
half-life [28]: 134 min
pIC50 [29]: 6.91
pIC50 [30]: 7.82
Cmax [31]: 674 ng/mL
AUC [32]: 2710 ng·h/mL

C=CCn1c(=O)c2cnc(Nc3ccc(N4C[C@H]5CN(CC6CC6)C[C@H]5C4)cc3)nc2n1-c1ccc(C(C)(C)O)cn1
Cmax [33]: 430 nM
half-life [34]: 43.8 min
bioavailability [35]: 63.7%
half-life [36]: 57 min
AUC(0-t) [37]: 153 ng·h/mL
Cmax [38]: 266 nM
Tmax [39]: 55.2 min
Tmax [40]: 1.8 min
AUC(0-t) [41]: 326 ng·h/mL
pIC50 [42]: 8.51

CN1CC2CN(c3ccc(Nc4ncc5c(=O)n6n(c5n4)-c4cccc(n4)C(C)(O)CCC/C=C\C6)cc3)CC2C1 (configuration not stated)
pIC50 [21]: 7.24
